Here are results for 21 molecules from paper PMC12494099, “Discovery and Characterization of Novel IKZF1/3 Glue Degraders against Multiple Hematological Cancer Cell Lines” (Oncology Research, 2025).

A value given as a limit tells only on which side of the number the result lay.

Holding throughout (type): cell-based
For one test, the target named is T1, IKZF3-HiBiT (Homo sapiens, UniProt Q96SW2+Q9UKT9).
T1 construct: expressed in transfected cells; host or cells: HEK293T
Kind of test: Quantitative degradation assay using the HiBiT system (HEK293T). The note with it: HEK-293T; HEK293T IKZF3-HiBiT, 24 h; read-out: maximal degradation (Dmax) on IKZF3. The method, then: (§1) An in vitro quantitative degradation assay utilizing the HiBiT system was carried out as previously described. To evaluate the degradation of IKZF1, IKZF2, and IKZF3 proteins, HEK293T cell lines stably expressing IKZF1-, IKZF2-, IKZF3-, GSPT1- or CK1α-HiBiT were cultured in 96-well plates at 12,000 cells per well. […] After the treatment, cell lysis was carried out using the Nano-Glo HiBiT Lytic Detection System (#N3040, Promega). All lysis operations were strictly carried out according to the manufacturer’s specific protocol. Then, the SpectraMax iD3 instrument (Molecular Devices, San Jose, CA, USA) was used to detect the luminescent signals released by the HiBiT-tagged neosubstrates.

In another test the target is T2, IKZF1-HiBiT (Homo sapiens, UniProt Q13422+Q96SW2).
T2 construct: expressed in transfected cells; host or cells: HEK293T
T2 sequence (Q13422 whole entry): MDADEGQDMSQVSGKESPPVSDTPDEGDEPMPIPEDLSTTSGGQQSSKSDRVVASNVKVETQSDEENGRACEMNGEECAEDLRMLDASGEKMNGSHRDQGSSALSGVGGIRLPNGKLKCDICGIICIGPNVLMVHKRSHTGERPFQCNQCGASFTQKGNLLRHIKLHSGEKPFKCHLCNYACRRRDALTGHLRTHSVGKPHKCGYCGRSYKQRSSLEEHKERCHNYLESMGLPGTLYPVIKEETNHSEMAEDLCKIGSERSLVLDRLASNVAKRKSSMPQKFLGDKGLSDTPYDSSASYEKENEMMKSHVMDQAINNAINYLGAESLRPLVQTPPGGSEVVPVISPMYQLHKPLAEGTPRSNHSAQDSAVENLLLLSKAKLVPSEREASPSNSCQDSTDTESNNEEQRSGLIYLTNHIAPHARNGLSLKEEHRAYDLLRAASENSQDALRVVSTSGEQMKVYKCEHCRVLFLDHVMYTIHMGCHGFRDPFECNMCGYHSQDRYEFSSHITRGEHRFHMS
T2 sequence (Q96SW2 whole entry): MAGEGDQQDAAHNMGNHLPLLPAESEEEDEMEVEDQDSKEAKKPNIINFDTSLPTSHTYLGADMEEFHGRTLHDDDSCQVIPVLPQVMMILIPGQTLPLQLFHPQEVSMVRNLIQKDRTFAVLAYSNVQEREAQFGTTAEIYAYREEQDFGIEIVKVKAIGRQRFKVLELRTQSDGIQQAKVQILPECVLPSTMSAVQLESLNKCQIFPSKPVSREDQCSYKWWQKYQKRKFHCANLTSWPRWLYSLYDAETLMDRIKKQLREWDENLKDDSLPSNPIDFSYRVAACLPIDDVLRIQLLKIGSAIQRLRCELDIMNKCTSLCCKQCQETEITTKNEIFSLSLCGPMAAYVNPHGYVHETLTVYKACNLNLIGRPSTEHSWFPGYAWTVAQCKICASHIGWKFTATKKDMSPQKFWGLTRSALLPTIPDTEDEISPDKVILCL
T2 sequence (Q16531 whole entry partner): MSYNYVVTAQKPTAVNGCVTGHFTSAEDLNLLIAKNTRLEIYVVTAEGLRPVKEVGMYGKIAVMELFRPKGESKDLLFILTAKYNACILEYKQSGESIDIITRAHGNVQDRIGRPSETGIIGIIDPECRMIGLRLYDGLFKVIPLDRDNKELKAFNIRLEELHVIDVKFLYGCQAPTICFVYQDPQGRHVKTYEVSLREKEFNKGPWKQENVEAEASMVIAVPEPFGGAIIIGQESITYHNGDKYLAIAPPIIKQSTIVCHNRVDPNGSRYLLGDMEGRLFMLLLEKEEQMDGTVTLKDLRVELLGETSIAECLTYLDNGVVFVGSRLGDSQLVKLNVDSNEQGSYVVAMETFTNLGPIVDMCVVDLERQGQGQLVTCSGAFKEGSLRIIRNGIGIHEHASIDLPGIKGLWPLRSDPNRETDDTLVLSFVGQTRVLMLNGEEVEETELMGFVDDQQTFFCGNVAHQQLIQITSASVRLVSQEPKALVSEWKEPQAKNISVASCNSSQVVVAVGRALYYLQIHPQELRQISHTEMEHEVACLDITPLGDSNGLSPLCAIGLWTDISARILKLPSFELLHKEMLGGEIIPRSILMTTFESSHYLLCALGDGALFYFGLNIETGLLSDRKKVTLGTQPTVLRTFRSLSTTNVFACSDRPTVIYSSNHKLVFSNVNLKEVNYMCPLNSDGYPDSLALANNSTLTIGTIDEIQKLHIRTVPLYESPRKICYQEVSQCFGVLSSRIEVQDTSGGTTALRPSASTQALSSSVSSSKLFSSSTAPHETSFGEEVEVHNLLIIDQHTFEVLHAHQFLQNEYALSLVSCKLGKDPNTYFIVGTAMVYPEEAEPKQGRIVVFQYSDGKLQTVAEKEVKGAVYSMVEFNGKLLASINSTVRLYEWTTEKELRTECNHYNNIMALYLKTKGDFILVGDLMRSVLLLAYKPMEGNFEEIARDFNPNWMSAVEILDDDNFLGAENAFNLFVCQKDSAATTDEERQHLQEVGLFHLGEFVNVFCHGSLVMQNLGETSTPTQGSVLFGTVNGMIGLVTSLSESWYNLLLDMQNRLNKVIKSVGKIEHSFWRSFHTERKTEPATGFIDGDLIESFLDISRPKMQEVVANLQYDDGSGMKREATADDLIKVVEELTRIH
The description is as above. The note with it: HEK-293T; HEK293T IKZF1-HiBiT, 24 h; read-out: maximal degradation (Dmax) on IKZF1. The method, then:
as §1
Background: With HiBiT, luminescence reflects the tagged protein that the partner subunit can reach.

The next test relates to MV-4-11. Kind of test: Cell viability (CCK-8) assay. The note with it: 96 h, CCK-8. As for the experimental part: (§2) The plated at a density of 15,000 cells per well, and each well contained 100 µL of medium. Subsequently, different compounds (MGD-AX, MGD-BX, MGD-CX) were added to each well. […] To evaluate the antiproliferative effects of these compounds, the Cell Counting Kit-8 (CCK-8, #CX007, Epizyme, Shanghai, China) was used. All procedures were carried out in strict accordance with the manufacturer’s instructions (Dojindo Laboratories, Mamoto Ken, Japan).

Another test relates to Ocl-Ly3. Kind of test: Cell viability (CCK-8) assay. The note with it: 96 h, CCK-8. As for the experimental part:
as §2

Another test concerns NCI-H929. Kind of test: Cell viability (CCK-8) assay. As for the experimental part: as §2
The test system of test [1] is NCI-H929 (MM), MV-4-11(AML), and Ocl-Ly3 (DLBCL) cells. Kind of test: Cell viability (CCK-8) assay, statements on the whole three-line panel. The note with it: for antiproliferative activity (in words): compared with the prototypical IMiDs. The method, then:
Multiple cell lines (NCI-H929, OPM-2, U937, Ocl-Ly3, RPMI-8226, MOLM-13, Skm-1, MUTZ-1, SU-DHL-4, TMD8, U2932, WSU-DLCL-2, MV-4-11 and KG-1 cells) were plated into 96-well plates. The plated at a density of 15,000 cells per well, and each well contained 100 µL of medium. Subsequently, different compounds (MGD-AX, MGD-BX, MGD-CX) were added to each well. These compounds’ concentrations were set at 0, 0.01, 0.033, 0.1, 0.33, 1, 3.3, 10 and 33 μM, and the cells were incubated with the compounds for 96 h. To evaluate the antiproliferative effects of these compounds, the Cell Counting Kit-8 (CCK-8, #CX007, Epizyme, Shanghai, China) was used. All procedures were carried out in strict accordance with the manufacturer’s instructions (Dojindo Laboratories, Mamoto Ken, Japan). The half maximal inhibitory concentrations (IC50) values, which represent the concentrations of the test compounds that can inhibit 50% of cell activity, were calculated using GraphPad Prism 8.0 (GraphPad Software Inc., San Diego, CA, USA).

T1 sequence (Q9UKT9 whole entry): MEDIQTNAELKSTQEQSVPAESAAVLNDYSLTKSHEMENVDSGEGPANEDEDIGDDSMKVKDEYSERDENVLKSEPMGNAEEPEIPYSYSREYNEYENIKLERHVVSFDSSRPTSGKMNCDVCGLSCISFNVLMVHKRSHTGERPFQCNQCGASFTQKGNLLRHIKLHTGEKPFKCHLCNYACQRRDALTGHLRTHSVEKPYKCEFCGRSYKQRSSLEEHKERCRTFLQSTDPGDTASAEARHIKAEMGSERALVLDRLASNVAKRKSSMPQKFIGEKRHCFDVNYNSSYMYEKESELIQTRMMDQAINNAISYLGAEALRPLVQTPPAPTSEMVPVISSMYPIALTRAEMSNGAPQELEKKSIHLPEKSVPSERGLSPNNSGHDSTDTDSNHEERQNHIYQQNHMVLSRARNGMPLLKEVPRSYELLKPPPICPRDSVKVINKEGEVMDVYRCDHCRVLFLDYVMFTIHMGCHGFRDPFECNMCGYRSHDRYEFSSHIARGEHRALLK
T1 sequence (Q96SW2 whole entry): as the sequence (Q96SW2 whole entry) above
T1 sequence (Q16531 whole entry partner): as the sequence (Q16531 whole entry partner) above

As for `Cc1nc2cccc(N)c2c(=O)n1C1CCC(=O)NC1=O` (stereo not drawn) [Avadomide, reference compound], the Dmax on IKZF3-HiBiT came to 83.1%; at IKZF1-HiBiT, 80.4%. Moreover, the IC50 in the test on MV-4-11 (Homo sapiens, MV4-11, 96 h) came to 0.85 µM; in the test on Ocl-Ly3, 15.5 µM; in the test with NCI-H929 (Homo sapiens, NCI-H929, 96 h) it was 0.2 µM.

In the case of `O=C1CCC(NC(=O)c2cccc(C(=O)N3CCCC3)c2)C(=O)N1` (stereo not drawn) [MGD-A10, N-(2,6-dioxopiperidin-3-yl)-3-(pyrrolidine-1-carbonyl)benzamide], the IC50 with MV-4-11 (Homo sapiens, MV4-11, 96 h) was 8.34 ± 0.79 µM; in the test with Ocl-Ly3, greater than 33 µM; in the test on NCI-H929 (Homo sapiens, NCI-H929, 96 h) it was 14.2 ± 1.36 µM. The “antiproliferative activity (in words)” value in test [1] is listed as “mild activity”.

For `O=C1CCC(NC(=O)c2cccc(C(=O)N3CCCCC3)c2)C(=O)N1` (stereo not drawn) [MGD-A11, N-(2,6-dioxopiperidin-3-yl)-3-(piperidine-1-carbonyl)benzamide], the IC50 worked out at 5.47 ± 0.52 µM in the test on MV-4-11 (Homo sapiens, MV4-11, 96 h); 23 ± 2.19 µM in the test with Ocl-Ly3; 8.33 ± 0.8 µM in the test with NCI-H929 (Homo sapiens, NCI-H929, 96 h). Also, the “antiproliferative activity (in words)” value in test [1] is recorded as “mild activity”.

For `CC1CCN(C(=O)c2cccc(C(=O)NC3CCC(=O)NC3=O)c2)CC1` (stereo not drawn) [MGD-A12, N-(2,6-dioxopiperidin-3-yl)-3-(4-methylpiperidine-1-carbonyl)benzamide], the IC50 in the test with MV-4-11 (Homo sapiens, MV4-11, 96 h) amounted to 14.3 ± 1.36 µM; with Ocl-Ly3, 15.3 ± 1.46 µM; in the test with NCI-H929 (Homo sapiens, NCI-H929, 96 h), 11.9 ± 1.14 µM. For the same molecule, in test [1] (NCI-H929, MV-4-11 and Ocl-Ly3 cells), the “fold reduction in potency compared with MGD-A5” value is “more than 3 fold”.

In the case of `O=C1CCC(NC(=O)c2cccc(C(=O)N3CCOCC3)c2)C(=O)N1` (stereo not drawn) [MGD-A14, N-(2,6-dioxopiperidin-3-yl)-3-(morpholine-4-carbonyl)benzamide], the IC50 worked out at 5.1 ± 0.49 µM with MV-4-11 (Homo sapiens, MV4-11, 96 h); 10.6 ± 1.01 µM with Ocl-Ly3; 7.43 ± 0.71 µM in the test with NCI-H929 (Homo sapiens, NCI-H929, 96 h). In addition, the “antiproliferative activity (in words)” value in test [1] is “mild activity”.

In the case of `O=C1CCC(NC(=O)c2cccc(CN3CCSCC3)n2)C(=O)N1` (stereo not drawn) [MGD-B5, N-(2,6-dioxopiperidin-3-yl)-6-(thiomorpholinomethyl)picolinamide], the IC50 came to 1.58 ± 0.47 µM with MV-4-11 (Homo sapiens, MV4-11, 96 h); 4.68 ± 2.44 µM in the test with Ocl-Ly3; 2.77 ± 0.36 µM with NCI-H929 (Homo sapiens, NCI-H929, 96 h).

`O=C1CCC(NC(=O)c2cccc(CN3CCCC3=O)n2)C(=O)N1` (stereo not drawn) [MGD-B6, N-(2,6-dioxopiperidin-3-yl)-6-((2-oxopyrrolidin-1-yl)methyl)picolinamide]: the IC50 came to 3.34 ± 0.32 µM with MV-4-11 (Homo sapiens, MV4-11, 96 h); 27.5 ± 2.62 µM with Ocl-Ly3; 4.89 ± 0.47 µM in the test on NCI-H929 (Homo sapiens, NCI-H929, 96 h).

With `O=C1CCC(NC(=O)c2cccc(CN3CCCCC3=O)n2)C(=O)N1` (stereo not drawn) [MGD-B7, N-(2,6-dioxopiperidin-3-yl)-6-((2-oxopiperidin-1-yl)methyl)picolinamide], the IC50 with MV-4-11 (Homo sapiens, MV4-11, 96 h) came to 5.65 ± 0.54 µM; in the test on Ocl-Ly3, 15.2 ± 1.44 µM; in the test with NCI-H929 (Homo sapiens, NCI-H929, 96 h), 3.21 ± 0.31 µM.

On to `CN1CCN(Cc2cccc(C(=O)NC3CCC(=O)NC3=O)n2)C(=O)C1` (stereo not drawn) [MGD-B8, N-(2,6-dioxopiperidin-3-yl)-6-((4-methyl-2-oxopiperazin-1-yl)methyl)picolinamide], for which the concentration for half-maximal inhibition (IC50) worked out at 1.33 ± 0.13 µM with MV-4-11 (Homo sapiens, MV4-11, 96 h); 8.43 ± 0.8 µM with Ocl-Ly3; 1.77 ± 0.17 µM in the test on NCI-H929 (Homo sapiens, NCI-H929, 96 h).

On to `O=C1CCC(NC(=O)c2cccc(CN3CCOCC3=O)n2)C(=O)N1` (stereo not drawn) [MGD-B9, N-(2,6-dioxopiperidin-3-yl)-6-((3-oxomorpholino)methyl)picolinamide], for which the IC50 with MV-4-11 (Homo sapiens, MV4-11, 96 h) turned out to be 1.93 ± 0.18 µM; in the test on Ocl-Ly3 it was 9.35 ± 0.89 µM; in the test on NCI-H929 (Homo sapiens, NCI-H929, 96 h), 2.34 ± 0.22 µM.

For `O=C1CCC(NC(=O)c2cccc(CN3CCSCC3=O)n2)C(=O)N1` (stereo not drawn) [MGD-B10, N-(2,6-dioxopiperidin-3-yl)-6-((3-oxothiomorpholino)methyl)picolinamide], the IC50 was 5.54 ± 0.53 µM in the test on MV-4-11 (Homo sapiens, MV4-11, 96 h); 13.2 ± 1.26 µM with Ocl-Ly3; 4.32 ± 0.41 µM in the test with NCI-H929 (Homo sapiens, NCI-H929, 96 h).

`CN1CCN(Cc2cccc(C(=O)NC3CCC(=O)NC3=O)c2F)CC1` (stereo not drawn) [MGD-C2, N-(2,6-dioxopiperidin-3-yl)-2-fluoro-3-((4-methylpiperazin-1-yl)methyl)benzamide]: the IC50 with MV-4-11 (Homo sapiens, MV4-11, 96 h) was 0.54 ± 0.05 µM; with Ocl-Ly3, 1.64 ± 0.37 µM; in the test on NCI-H929 (Homo sapiens, NCI-H929, 96 h), 0.77 ± 0.04 µM.

With `O=C1CCC(NC(=O)c2cccc(CN3CCOCC3)c2F)C(=O)N1` (stereo not drawn) [MGD-C3, N-(2,6-dioxopiperidin-3-yl)-2-fluoro-3-(morpholinomethyl)benzamide], the half-inhibitory concentration (IC50) in the test with MV-4-11 (Homo sapiens, MV4-11, 96 h) is 0.93 ± 0.048 µM; in the test on Ocl-Ly3, 2.39 ± 0.23 µM; in the test with NCI-H929 (Homo sapiens, NCI-H929, 96 h), 1.98 ± 0.19 µM.

On to `O=C1CCC(NC(=O)c2cccc(CN3CCSCC3)c2F)C(=O)N1` (stereo not drawn) [MGD-C4, N-(2,6-dioxopiperidin-3-yl)-2-fluoro-3-(thiomorpholinomethyl)benzamide], for which the IC50 in the test on MV-4-11 (Homo sapiens, MV4-11, 96 h) was determined as 2.43 ± 0.33 µM; with Ocl-Ly3, 5.01 ± 0.48 µM; in the test on NCI-H929 (Homo sapiens, NCI-H929, 96 h) it was 1.79 ± 0.27 µM.

Regarding `O=C1CCC(NC(=O)c2cccc(CN3CCCC3=O)c2F)C(=O)N1` (stereo not drawn) [MGD-C5, N-(2,6-dioxopiperidin-3-yl)-2-fluoro-3-((2-oxopyrrolidin-1-yl)methyl)benzamide], the IC50 in the test with MV-4-11 (Homo sapiens, MV4-11, 96 h) was 2.22 ± 0.21 µM; with Ocl-Ly3, 5.05 ± 0.48 µM; in the test with NCI-H929 (Homo sapiens, NCI-H929, 96 h), 2.04 ± 0.19 µM.

Take `O=C1CCC(NC(=O)c2cccc(CN3CCCCC3=O)c2F)C(=O)N1` (stereo not drawn) [MGD-C6, N-(2,6-dioxopiperidin-3-yl)-2-fluoro-3-((2-oxopiperidin-1-yl)methyl)benzamide]: the IC50 came to 1.63 ± 0.16 µM with MV-4-11 (Homo sapiens, MV4-11, 96 h); 5.95 ± 0.57 µM in the test on Ocl-Ly3; 1.33 ± 0.13 µM in the test on NCI-H929 (Homo sapiens, NCI-H929, 96 h).

In the case of `O=C1CCC(NC(=O)c2cccc(CN3CCOCC3=O)c2F)C(=O)N1` (stereo not drawn) [MGD-C7, N-(2,6-dioxopiperidin-3-yl)-2-fluoro-3-((3-oxomorpholino)methyl)benzamide], the concentration for half-maximal inhibition (IC50) in the test with MV-4-11 (Homo sapiens, MV4-11, 96 h) was found to be 0.68 ± 0.07 µM; with Ocl-Ly3, 2.11 ± 0.2 µM; with NCI-H929 (Homo sapiens, NCI-H929, 96 h) it was 0.93 ± 0.15 µM.

Turning to `O=C1CCC(N2C(=O)c3ccccc3C2=O)C(=O)N1` (stereo not drawn) [Thalidomide, reference compound], the half-inhibitory concentration (IC50) is 26.5 ± 2.52 µM in the test with MV-4-11 (Homo sapiens, MV4-11, 96 h); greater than 33 µM with Ocl-Ly3; 9.86 ± 0.94 µM in the test on NCI-H929 (Homo sapiens, NCI-H929, 96 h).

As to “N-(2,6-dioxopiperidin-3-yl)-2-fluoro-3-((2-oxopiperidin-1-yl)methyl)benzamide [MGD-C8]”, the IC50 in the test on MV-4-11 came to 1.73 ± 0.17 µM; in the test on Ocl-Ly3, 3.28 ± 0.31 µM; in the test with NCI-H929 (96 h), 1.23 ± 0.12 µM.

Take “N-(2,6-dioxopiperidin-3-yl)-2-fluoro-3-(piperidin-1-ylmethyl)benzamide [MGD-C1]”: the IC50 in the test with MV-4-11 came out at 7.36 ± 0.7 µM; in the test with Ocl-Ly3, 12.6 ± 1.2 µM; in the test with NCI-H929 (96 h) it was 6.91 ± 0.66 µM.

Consider “N-(2,6-dioxopiperidin-3-yl)-3-(thiomorpholinomethyl)cyclohexa-1,3-diene-1-carboxamide [MGD-A9]”, for which the IC50 was 1.9 ± 0.18 µM with MV-4-11, 5.44 ± 0.52 µM with Ocl-Ly3 and 2.11 ± 0.2 µM in the test with NCI-H929 (96 h).

Usually Dmax stands for the largest share of the target that was removed. What is called IC50 is the concentration that gives 50% inhibition. A lower IC50 goes with higher potency.
